Assay results from patent US20250195460A1, “MEDIUM CHAIN TRIGLYCERIDE AND SHORT CHAIN FATTY ACID COMPOSITIONS & METHODS OF USE THEREOF” (priority 2023, published 2025).

Tested on: HepG2 cells
Assay: Ketogenic activity in HepG2 cells (ketone levels in cell supernatants)
Type: cell-based
Details: each component 2.4 mM, glucose-free media, up to 135 minutes, FIG. 1
Protocol: In this Example, the ketogenic activities of various compositions were tested in HepG2 cells. More particularly, the ketogenic activity of butyric acid (2.4 mM) (“BA”) alone; beta-hydroxybutyrate (2.4 mM) (“BHB”) alone; caprylic acid (2.4 mM) (“CA”) alone; caprylic acid (2.4 mM) combined with butyric acid (2.4 mM); and a combination of caprylic acid (2.4 mM), butyric acid (2.4 mM), and beta-hydroxybutyrate (2.4 mM) were all tested in HepG2 cells. Each compound (or combination of compounds) was added to a solvent containing glucose-free media that included 10% fetal bovine serum (FBX), 1 mM sodium pyruvate, and 1 mM glutamine.
Each test composition was administered to HepG2 cells in a cell culture plate. Each composition was tested with three replicates. Ketone levels in the HepG2 cell supernatants were measured at the time of administration (time=0) and every 45 minutes thereafter, up to 135 minutes. The results are presented as the difference between the ketone concentration that was measured at each time point (i.e., measured every 45 minutes) and the ketone concentration that was measured at time=0 for each test composition, such that any positive measurement indicates an increase in ketone levels from the baseline time=0 measurement.

Row | SMILES | induction of ketogenesis (generation of ketones)
1 | CCCC(=O)O [butyric acid] | neither butyric acid alone, nor caprylic acid alone, was shown to induce ketogenesis
2 | CCCCCCCC(=O)O [caprylic acid, caprylic acid (octanoic acid)] | neither butyric acid alone, nor caprylic acid alone, was shown to induce ketogenesis
